Legend:
[1] = biological target: cytochrome bo oxidase (Escherichia coli, UniProt P0ABI8); conditions: read-out: Km for O2; cited from earlier work
[2] = system: cytochrome bd oxidase; conditions: cited from earlier work
[3] = system: aminotransferase from Leishmania mexicana; conditions: enzyme expressed in E. coli; cited from earlier work
[4] = biological target: T1, endogenous alcohol dehydrogenase backflux activity (Escherichia coli, UniProt P27250); conditions: purified streptavidin-tagged protein, in the presence of NADP+
T1 sequence (P27250 1-339): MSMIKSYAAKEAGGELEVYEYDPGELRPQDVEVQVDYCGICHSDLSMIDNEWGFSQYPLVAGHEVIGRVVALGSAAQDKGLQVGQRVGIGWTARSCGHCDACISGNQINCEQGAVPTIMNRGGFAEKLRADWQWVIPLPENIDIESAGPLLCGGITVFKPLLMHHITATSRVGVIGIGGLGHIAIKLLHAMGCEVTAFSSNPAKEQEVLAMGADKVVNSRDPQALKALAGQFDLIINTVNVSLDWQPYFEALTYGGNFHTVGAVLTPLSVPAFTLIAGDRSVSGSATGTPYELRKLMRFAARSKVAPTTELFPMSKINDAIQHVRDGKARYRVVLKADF
Description: The sample was purified while following the backflux activity.
The yjgB gene was cloned with a streptavidin tag, expressed and purified in order to characterize its properties.

cytochrome bo oxidase, sequence (P0ABI8 whole entry): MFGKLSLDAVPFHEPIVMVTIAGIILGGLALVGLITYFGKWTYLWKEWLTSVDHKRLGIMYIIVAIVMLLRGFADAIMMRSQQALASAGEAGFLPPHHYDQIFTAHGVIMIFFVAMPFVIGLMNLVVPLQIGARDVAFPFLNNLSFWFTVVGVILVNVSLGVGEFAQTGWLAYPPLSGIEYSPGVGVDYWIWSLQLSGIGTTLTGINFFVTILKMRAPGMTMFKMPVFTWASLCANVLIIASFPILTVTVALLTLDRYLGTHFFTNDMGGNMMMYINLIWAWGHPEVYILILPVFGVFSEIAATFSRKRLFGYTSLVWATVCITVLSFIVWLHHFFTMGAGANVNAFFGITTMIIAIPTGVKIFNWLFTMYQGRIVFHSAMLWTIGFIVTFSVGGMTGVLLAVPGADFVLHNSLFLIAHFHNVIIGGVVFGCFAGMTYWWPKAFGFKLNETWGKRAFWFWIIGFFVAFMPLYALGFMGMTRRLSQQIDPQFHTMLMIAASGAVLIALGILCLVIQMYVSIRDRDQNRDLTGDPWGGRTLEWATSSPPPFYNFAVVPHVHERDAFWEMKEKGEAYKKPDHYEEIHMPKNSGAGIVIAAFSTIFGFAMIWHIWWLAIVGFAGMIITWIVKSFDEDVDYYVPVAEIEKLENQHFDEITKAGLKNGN
cytochrome bo oxidase, sequence (P0ABJ1 25-315 partner): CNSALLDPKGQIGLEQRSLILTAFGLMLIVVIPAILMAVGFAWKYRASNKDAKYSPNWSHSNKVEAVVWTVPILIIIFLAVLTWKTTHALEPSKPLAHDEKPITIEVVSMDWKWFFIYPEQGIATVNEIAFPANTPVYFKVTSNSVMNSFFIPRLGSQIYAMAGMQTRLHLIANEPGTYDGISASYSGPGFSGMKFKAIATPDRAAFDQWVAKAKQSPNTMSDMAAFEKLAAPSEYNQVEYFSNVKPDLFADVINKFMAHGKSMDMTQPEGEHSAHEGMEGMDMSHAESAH
cytochrome bo oxidase, sequence (P0ABJ3 whole entry partner): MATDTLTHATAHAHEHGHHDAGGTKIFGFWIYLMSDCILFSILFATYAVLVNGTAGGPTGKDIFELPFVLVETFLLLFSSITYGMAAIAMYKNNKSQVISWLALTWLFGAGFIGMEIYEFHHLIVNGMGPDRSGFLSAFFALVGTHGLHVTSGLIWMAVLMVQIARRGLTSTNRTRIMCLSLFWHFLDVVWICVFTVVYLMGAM
cytochrome bo oxidase, sequence (P0ABJ6 whole entry partner): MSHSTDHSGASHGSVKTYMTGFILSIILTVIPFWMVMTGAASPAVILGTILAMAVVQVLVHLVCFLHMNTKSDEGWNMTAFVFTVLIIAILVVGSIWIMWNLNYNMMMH

Molecule | activity (considered 100% on tyrosine) [3] [%] | other results
O=O [Sample O2] | – | Km [1]: ~1 µM; Km ([2]; read-out: Km for O2): 0.01 µM
CC(C)C[C@H](N)C(=O)O [leucine] | 25 | –
CSCC[C@H](N)C(=O)O [methionine] | 25 | –
N[C@@H](Cc1ccccc1)C(=O)O [phenylalanine] | 90 | –
N[C@@H](Cc1c[nH]c2ccccc12)C(=O)O [tryptophan] | 85 | –
N[C@@H](Cc1ccc(O)cc1)C(=O)O [tyrosine] | 100 | –
Cytochrome bd-II | – | In vivo sp act (mol O2/mol cytochrome bd/s) ([2]; from Bekker et al. 2009): 70 ± 12 mol O2/mol cytochrome bd/s; Vmax (mol O/mol cytochrome bd/s) ([2]; from Bekker et al. 2009): 818 ± 75 mol O/mol cytochrome bd/s
yjgB: E. coli alcohol dehydrogenase yjgB (GenBank NP_418690.4) identified as carrying backflux activity (protein, UniProt P27250 1-339, looked up) Aldehyde reductase Ahr: MSMIKSYAAKEAGGELEVYEYDPGELRPQDVEVQVDYCGICHSDLSMIDNEWGFSQYPLVAGHEVIGRVVALGSAAQDKGLQVGQRVGIGWTARSCGHCDACISGNQINCEQGAVPTIMNRGGFAEKLRADWQWVIPLPENIDIESAGPLLCGGITVFKPLLMHHITATSRVGVIGIGGLGHIAIKLLHAMGCEVTAFSSNPAKEQEVLAMGADKVVNSRDPQALKALAGQFDLIINTVNVSLDWQPYFEALTYGGNFHTVGAVLTPLSVPAFTLIAGDRSVSGSATGTPYELRKLMRFAARSKVAPTTELFPMSKINDAIQHVRDGKARYRVVLKADF | – | activity with BDO as a substrate [4]: robust activity

Source: patent US12312627B2, “Microorganisms and methods for production of 4-hydroxybutyrate, 1,4-butanediol and related compounds” (priority 2013, dated 2025)
